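Assay format: 96-well plates, 48-hour exposure. Abbreviation: GI50, concentration required for 50% inhibition of growth.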 The source made the active and inactive calls. No stated cut-off is given here; in the data, active = GI50 up to about 1.1 µM and inactive = higher.
Experiments:
Assay in all cases: NCI-60 cell line screen, 48 h
[1] = system: DLD-1
[2] = system: HOP-18
[3] = system: KM-20L2
[4] = system: LXFL 529
[5] = system: SNB-78
[6] = system: XF498
[7] = system: BT-549
[8] = system: DMS-114
[9] = system: RXF 631

| Structure (SMILES) | GI50 [1] | GI50 [3] | GI50 [4] | GI50 [5] | GI50 [7] | GI50 [8] | also measured |
| --- | --- | --- | --- | --- | --- | --- | --- |
| CC(C)(O)[C@H](CCO)O[Si](c1ccccc1)(c1ccccc1)C(C)(C)C | 8.93 µM (inactive) | 11.2 µM (inactive) | 11.6 µM (inactive) | 15 µM (inactive) | – | – | GI50 [2]: 3.1 µM (inactive); GI50 [6]: 8.18 µM (inactive) |
| COc1cc([N+](=O)[O-])ccc1NC1=CC(=O)CCC1 | – | – | – | – | > 100 µM (inactive) | – | – |
| CC(=O)OCC1OC(NC(=O)N(CCCl)N=O)C(OC(C)=O)C(OC(C)=O)C1OC(C)=O (configuration not stated) | > 100 µM (inactive) | > 100 µM (inactive) | – | > 100 µM (inactive) | – | > 100 µM (inactive) | GI50 [2]: > 100 µM (inactive); GI50 [6]: 75.9 µM (inactive) |
| COc1cc(/C=C(\C)c2ccc3c(c2)OCO3)cc(OC)c1OC | 18.5 µM (inactive) | 32.4 µM (inactive) | 14.7 µM (inactive) | 37.9 µM (inactive) | – | 25.1 µM (inactive) | GI50 [2]: 64 µM (inactive); GI50 [9]: 28.6 µM (inactive) |
| Oc1cc(Cl)cc2cccnc12 | – | – | – | – | 3.89 µM (inactive) | – | – |
| C=C1C(=O)O[C@H]2C1C[C@H](O)[C@@]1(C)OC1CC[C@@]1(C)O[C@H]21 (some centres not stated) | – | – | – | – | 13.8 µM (inactive) | – | – |
| C=C1CC(C)(COc2ccc3ccc(=O)oc3c2)OC1=O (configuration not stated) | – | – | – | – | 1.02 µM (active) | – | – |
| N#Cc1c(N)sc2c1-c1ccccc1OC2 | – | – | – | – | 41 µM (inactive) | – | – |
| COc1ccc2nc3c([N+](=O)[O-])ccc4c3c(c2c1)N=CN4CCCN(C)C | – | – | – | – | 8.22 µM (inactive) | – | – |
| CCOC(=O)C1C(=O)C=C(c2cc(C)ccc2O)CC1c1cccc(Cl)c1 (configuration not stated) | – | – | – | – | 44.6 µM (inactive) | – | – |
| O=c1c2ccccc2nc(-c2ccccc2Cl)n1NCC1(O)OCC(O)C(O)C1O (configuration not stated) | – | > 100 µM (inactive) | > 100 µM (inactive) | > 100 µM (inactive) | – | > 100 µM (inactive) | GI50 [9]: > 100 µM (inactive); GI50 [6]: > 100 µM (inactive) |
| COc1ccc2ccccc2c1/C=C/C(=O)c1ccccc1 | – | – | – | – | 2.96 µM (inactive) | – | – |
| Cn1c(CO)ccc1-c1ccc(-c2ccc(CO)[se]2)[se]1 | – | – | – | – | 11.1 µM (inactive) | – | – |
| O=C(O)COc1ccc(C(=O)/C(SS/C(C(=O)c2ccc(OCC(=O)O)c(Cl)c2Cl)=C2\C=C(c3ccc(Br)cc3)SS2)=C2/C=C(c3ccc(Br)cc3)SS2)c(Cl)c1Cl | 6.14 µM (inactive) | 39.6 µM (inactive) | 1.29 µM (inactive) | 4.57 µM (inactive) | 8.13 µM (inactive) | 1.05 µM (active) | GI50 [2]: 5.48 µM (inactive); GI50 [6]: 3.19 µM (inactive) |
| CC(C)(C)Sc1nnc(SC(C)(C)C)c2c(SC(C)(C)C)nnc(O)c12 | 10.9 µM (inactive) | 10.4 µM (inactive) | 10.6 µM (inactive) | 12.2 µM (inactive) | – | 4.31 µM (inactive) | GI50 [9]: 3.2 µM (inactive); GI50 [6]: 15.3 µM (inactive) |
| CC1=NNC(=O)C2CCC(=O)N12 (configuration not stated) | > 100 µM (inactive) | 49.2 µM (inactive) | > 100 µM (inactive) | > 100 µM (inactive) | – | > 100 µM (inactive) | GI50 [2]: > 100 µM (inactive); GI50 [9]: > 100 µM (inactive) |
| C/C(=N\NC(=S)N1CCN(C2CCCCCC2)CC1)c1ccccn1 | 0.01 µM (active) | 0.01 µM (active) | 0.001 µM (active) | 2.78 µM (inactive) | 1.27 µM (inactive) | 0.01 µM (active) | GI50 [2]: 2.06 µM (inactive) |
| COc1ccc(Nc2nc(C#N)c(N)s2)cc1 | 48.6 µM (inactive) | 38.5 µM (inactive) | 31.9 µM (inactive) | > 100 µM (inactive) | – | – | GI50 [9]: 35.9 µM (inactive); GI50 [6]: 21.4 µM (inactive) |
| Cn1c2ccc(C3=NCCN3)cc2c2cc(C3=NCCN3)ccc21 | – | – | – | – | > 100 µM (inactive) | – | – |
| NC(CCCCCP(=O)(O)O)C(=O)O (configuration not stated) [AP-7] | – | – | – | – | > 100 µM (inactive) | – | – |
| COc1cc2c(cc1OCCCC(=O)Nc1cc(C(=O)Nc3cc(C(=O)Nc4cc(C(=O)NCCCN(C)C)n(C)n4)n(C)c3)n(C)c1)N=CC1CCCN1C2=O (configuration not stated) | – | – | – | – | 22.1 µM (inactive) | – | – |
| CC1=C2C=CC(=O)C[C@@]2(C)CCC1 | > 100 µM (inactive) | – | > 100 µM (inactive) | > 100 µM (inactive) | – | > 100 µM (inactive) | GI50 [9]: > 100 µM (inactive); GI50 [6]: > 100 µM (inactive) |
| O=C1CCC(NC(=O)c2ccccc2)C(=O)N1 (configuration not stated) | – | – | – | – | > 100 µM (inactive) | – | – |
| Cc1c(-c2ccccc2)[nH]c2cc(Cl)ccc2c1=O | – | – | – | – | > 100 µM (inactive) | – | – |
| O=C1CCc2ccc3c(c21)CC1(Cc2ccccc2C1)C3 | – | – | – | – | 10 µM (inactive) | – | – |
| CC1=CC2=C(C)C3(CC3)[C@@](C)(O)C(=O)C2=C1 | 0.276 µM (active) | 0.213 µM (active) | 0.223 µM (active) | 0.274 µM (active) | – | 0.139 µM (active) | GI50 [2]: 0.27 µM (active); GI50 [6]: 0.17 µM (active) |
| CC(=O)OC(C)(C)CCC(=O)[C@](C)(O)[C@H]1[C@H](O)C[C@@]2(C)[C@@H]3CC=C4C(C)=C(OC5OC(CO)C(O)C(O)C5O)C(=O)C[C@@H]4[C@]3(C)C(=O)C[C@]12C (some centres not stated) | – | – | – | – | > 100 µM (inactive) | – | – |
| N#Cc1c(-c2ccc(Cl)cc2)cc(-c2nc3ccccc3[nH]2)nc1N | – | – | – | – | 14.4 µM (inactive) | – | – |
| COc1cc(/C=C(\C#N)c2nc3ccccc3o2)ccc1O | – | – | – | – | 16.1 µM (inactive) | – | – |
| COc1ccc(C2C=C(c3ccc(C)cc3)N(c3ccc(OC)cc3[N+](=O)[O-])C3C(=O)OC(=O)C23)c(OC)c1 (configuration not stated) | – | – | – | – | 53.3 µM (inactive) | – | – |
